# According to patent US4278663A, “Antibiotic X-14868A, B, C and D” (Hoffmann-La Roche Inc., priority 1980, dated 1981):
# Read-outs that look alike come from different tables or passages of the source.
# Assays:
# [1] = test system: in vitro rumen fermentations; assay: Volatile fatty acid ratio in in vitro rumen fermentations (Table 6); design: species or system steer; conditions: for VFA Molor Ratio C3 /(C2 +nC4): four hours, 38° C.; for % Positive Control: relative to monensin 50 ppm
# Procedure: Rumen fluid is obtained from a steer with a fistulated rumen. The steer is maintained on the following ration:
# The rumen fluid is immediately strained through a #30 mesh sieve. For each fermentation, 75 ml of the resulting fluid is added to a 250 ml flask containing the following:
# 1 g of 80%:20% finely ground grain: hay ration;
# 60 micromoles of each of the 10 essential amino acids (arginine, histidine, leucine, methionine, threonine, valine, lysine, isoleucine, phenylalanine,tryptophan);
# Each flask is incubated at 38° C. in a shaking water bath equipped with a gassing hood. Carbon dioxide is continuously passed through the hood. […] The resulting fluid is permitted to sit at room temperature for 30 minutes. The fluid is filtered through a […] Millipore filter and refrigerated until gas-liquid chromatographic analysis for volatile fatty acids.
# [2] = test system: Saccharomyces cerevisiae 90 NRRL 4226; assay: Antimicrobial activity, Minimum Inhibitory Concentration (Table 4); format: cell-based; conditions: Yeast
# [3] = test system: Paecilomyces varioti M16 ATCC 26820; assay: as above; format: cell-based; conditions: Molds
# [4] = test system: Mycobacterium phlei 78 ATCC 355; assay: as above; format: cell-based; conditions: G (+) filaments
# [5] = test system: Sarcina lutea PCI ATCC 9341; assay: as above; format: cell-based; conditions: G (+) cocci
# [6] = test system: Staphylococcus aureus 82 ATCC 6538p; assay: as above; format: cell-based; conditions: G (+) cocci
# [7] = test system: Candida albicans 155 NRRL 477; assay: as above; format: cell-based; conditions: Yeast
# [8] = test system: Penicillin digitatum 0184 ATCC 26821; assay: as above; format: cell-based; conditions: Molds
# [9] = test system: Bacillus megaterium 164 ATCC 8011; assay: as above; format: cell-based; conditions: G (+) rods
# [10] = test system: Streptomyces cellulosae 097 ATCC 3313; assay: as above; format: cell-based; conditions: G (+) filaments
# Bacillus sp.E ATCC 27859 = assay: as above; format: cell-based; conditions: G (+) rods
# Treponema hyodysenteriae = assay: Minimum Inhibitory Concentration against Treponema hyodysenteriae (Table 7); format: cell-based; conditions: for MIC: Brachyspira hyodysenteriae
# Source text: The compound was examined for activity against Treponema hyodysenteriae, the etiologic agent of swine dysentery. The results which represent a comparative test following well-known test methods versus a known agent in the treatment and prevention of swine dysentery are set forth in the table below.
# [11] = test system: Streptococcus faecium ATCC 8043; assay: Antimicrobial activity, Minimum Inhibitory Concentration (Table 4); format: cell-based; conditions: G (+) cocci
# [12] = test system: Bacillus subtilis NRRL 558; assay: as above; format: cell-based; conditions: G (+) rods
# ruminants = assay: Growth promotion / efficiency of feed utilization in ruminants; format: in vivo; conditions: result in words
compound,measurement,setting,value
CO[C@@H]1[C@@H](OC)[C@H](C)[C@@](O)(CC(=O)O)O[C@H]1[C@H](C)[C@H]1O[C@@]2(CC[C@@](C)([C@H]3CC[C@@](C)([C@@H]4O[C@@H]([C@H]5O[C@](C)(O)[C@H](C)C[C@@H]5C)C[C@@H]4O[C@@H]4C[C@H](OC)[C@@H](OC)[C@H](C)O4)O3)O2)C[C@H](O)[C@H]1C.N [Antibiotic X-14868A],VFA Molor Ratio C3 /(C2 +nC4),[1]; 5 ppm,0.323
same,% Positive Control,[1]; 5 ppm,82.5%
same,VFA Molor Ratio C3 /(C2 +nC4),[1]; 50 ppm,0.358
same,% Positive Control,[1]; 50 ppm,91.2%
same,Minimum Inhibitory Concentration,[2],1000 µg/mL
same,Minimum Inhibitory Concentration,[3],250 µg/mL
same,Minimum Inhibitory Concentration,[4],12.5 µg/mL
same,Minimum Inhibitory Concentration,[5],12.5 µg/mL
same,Minimum Inhibitory Concentration,[6],6.25 µg/mL
same,Minimum Inhibitory Concentration,[7],250 µg/mL
same,Minimum Inhibitory Concentration,[8],1000 µg/mL
same,Minimum Inhibitory Concentration,[9],12.5 µg/mL
same,Minimum Inhibitory Concentration,[10],25 µg/mL
same,Minimum Inhibitory Concentration,Bacillus sp.E ATCC 27859,0.39 µg/mL
same,"Minimum Inhibitory Concentration, Mean",Treponema hyodysenteriae; mean of four strains,0.05 meg/ml
same,Minimum Inhibitory Concentration,Treponema hyodysenteriae; strain B 169,0.05 meg/ml
same,Minimum Inhibitory Concentration,Treponema hyodysenteriae; strain H 140,0.05 meg/ml
same,Minimum Inhibitory Concentration,Treponema hyodysenteriae; strain H-78,0.05 meg/ml
same,Minimum Inhibitory Concentration,Treponema hyodysenteriae; strain SQ 2,0.05 meg/ml
same,Minimum Inhibitory Concentration,[11],0.313 µg/mL
same,Minimum Inhibitory Concentration,[12],12.5 µg/mL
same,efficiency of feed utilization in ruminant animals,ruminants; oral,increases the efficiency of feed utilization in ruminant animals
same,activity as a growth promotant in ruminants,ruminants,exhibit activity as a growth promotant in ruminants
"CC(C)c1ncc([N+](=O)[O-])n1C [Ipronidazole, reference compound]",MIC,"Treponema hyodysenteriae; mean of four strains, read-out: Minimum Inhibitory Concentration, Mean",1.1 µg/mL
same,MIC,"Treponema hyodysenteriae; strain B 169, read-out: Minimum Inhibitory Concentration",0.63 µg/mL
same,MIC,"Treponema hyodysenteriae; strain H 140, read-out: Minimum Inhibitory Concentration",0.63 µg/mL
same,MIC,"Treponema hyodysenteriae; strain H-78, read-out: Minimum Inhibitory Concentration",0.63 µg/mL
same,MIC,"Treponema hyodysenteriae; strain SQ 2, read-out: Minimum Inhibitory Concentration",2.5 µg/mL
"CC[C@@]1([C@@H]2O[C@@H]([C@H]3O[C@@](O)(CO)[C@H](C)C[C@@H]3C)C[C@@H]2C)CC[C@H]([C@]2(C)CC[C@]3(C[C@H](O)[C@@H](C)[C@@H]([C@@H](C)[C@@H](OC)[C@H](C)C(=O)O)O3)O2)O1 [Monensin, reference compound]",VFA Molor Ratio C3 /(C2 +nC4),[1]; 50 ppm,0.392
same,% Positive Control,[1]; 50 ppm,100.0%
